Data taken from ChEMBL document CHEMBL3352445, “Inhibition of activated STAT5 in Bcr/Abl expressing leukemia cells with new pimozide derivatives” (Bioorg Med Chem Lett, 2014).
The source made the active and inactive calls. The calls are words filed in the database; no cut-off is given here.

How the values were obtained:
K562 [1] = experiment: Induction of apoptosis in human K562 cells by annexin V/propidium iodide staining-based flow cytometric analysis; type: functional, cell-based
K562 [2] = experiment: Cytotoxicity against human K562 cells after 48 hrs by trypan blue dye exclusion test; type: functional, cell-based; details: K562, 48 h
K562 [3] = experiment: Cell cycle arrest in human K562 cells assessed as accumulation at S phase after 24 hrs using propidium iodide staining at 30 uM by flow cytometry (reference value: 45.94%); type: functional
K562 [4] = experiment: Cell cycle arrest in human K562 cells assessed as accumulation at G2-M phase after 24 hrs using propidium iodide staining at 30 uM by flow cytometry (reference value: 15.01%); type: functional
K562 [5] = experiment: Effect on pSTAT5 expression level in human K562 cells at 20 uM after 24 hrs by FACScan flow cytometry; type: functional, cell-based
K562 [6] = experiment: Cell cycle arrest in human K562 cells assessed as accumulation at G1 phase after 24 hrs using propidium iodide staining at 30 uM by flow cytometry (reference value: 39.05%); type: functional
K562 [7] = experiment: Cell cycle arrest in human K562 cells assessed as accumulation at G2-M phase after 24 hrs using propidium iodide staining at 40 uM by flow cytometry (reference value: 15.01%); type: functional
K562 [8] = experiment: Effect on pSTAT5 expression level in human K562 cells at 30 uM after 24 hrs by FACScan flow cytometry; type: functional, cell-based
K562 [9] = experiment: Cell cycle arrest in human K562 cells assessed as accumulation at S phase after 24 hrs using propidium iodide staining at 40 uM by flow cytometry (reference value: 45.94%); type: functional
K562 [10] = experiment: Cell cycle arrest in human K562 cells assessed as accumulation at G1 phase after 24 hrs using propidium iodide staining at 40 uM by flow cytometry (reference value: 39.05%); type: functional
K562 [11] = experiment: Cell cycle arrest in human K562 cells assessed as accumulation at G2-M phase after 24 hrs using propidium iodide staining at 5 uM by flow cytometry (reference value: 15.01%); type: functional
K562 [12] = experiment: Induction of pSTAT5 expression level in human K562 cells at 10 uM after 24 hrs by FACScan flow cytometry; type: functional, cell-based
K562 [13] = experiment: Cell cycle arrest in human K562 cells assessed as accumulation at G1 phase after 24 hrs using propidium iodide staining at 5 uM by flow cytometry (reference value: 39.05%); type: functional
K562 [14] = experiment: Cell cycle arrest in human K562 cells assessed as accumulation at S phase after 24 hrs using propidium iodide staining at 5 uM by flow cytometry (reference value: 45.94%); type: functional
K562 [15] = experiment: Induction of pSTAT5 expression level in human K562 cells at 15 uM after 24 hrs by FACScan flow cytometry; type: functional, cell-based
K562 [16] = experiment: Ratio of Pimozide AC50 to compound AC50 for human K562 cells by annexin V/propidium iodide staining-based flow cytometric analysis; type: functional
K562 [17] = experiment: Ratio of Pimozide IC50 to compound IC50 for human K562 cells by trypan blue dye exclusion test; type: functional
K562 [18] = experiment: Ratio of Pimozide to compound for pSTAT5 expression level in human K562 cells; type: functional
K562 [19] = experiment: Cell cycle arrest in human K562 cells assessed as accumulation at G1 phase after 24 hrs using propidium iodide staining at 7 uM by flow cytometry (reference value: 39.05%); type: functional
K562 [20] = experiment: Cell cycle arrest in human K562 cells assessed as accumulation at G2-M phase after 24 hrs using propidium iodide staining at 7 uM by flow cytometry (reference value: 15.01%); type: functional
K562 [21] = experiment: Cell cycle arrest in human K562 cells assessed as accumulation at S phase after 24 hrs using propidium iodide staining at 7 uM by flow cytometry (reference value: 45.94%); type: functional
K562 [22] = experiment: Cell cycle arrest in human K562 cells assessed as accumulation at G1 phase after 24 hrs using propidium iodide staining at 20 uM by flow cytometry (reference value: 39.05%); type: functional
K562 [23] = experiment: Cell cycle arrest in human K562 cells assessed as accumulation at S phase after 24 hrs using propidium iodide staining at 20 uM by flow cytometry (reference value: 45.94%); type: functional
K562 [24] = experiment: Cell cycle arrest in human K562 cells assessed as accumulation at G2-M phase after 24 hrs using propidium iodide staining at 20 uM by flow cytometry (reference value: 15.01%); type: functional
K562 [25] = experiment: Cell cycle arrest in human K562 cells assessed as accumulation at G1 phase after 24 hrs using propidium iodide staining at 10 uM by flow cytometry (reference value: 39.05%); type: functional
K562 [26] = experiment: Cell cycle arrest in human K562 cells assessed as accumulation at S phase after 24 hrs using propidium iodide staining at 10 uM by flow cytometry (reference value: 45.94%); type: functional
K562 [27] = experiment: Cell cycle arrest in human K562 cells assessed as accumulation at G2-M phase after 24 hrs using propidium iodide staining at 10 uM by flow cytometry (reference value: 15.01%); type: functional
K562 [28] = experiment: Effect on pSTAT5 expression level in human K562 cells at 10 uM after 24 hrs by FACScan flow cytometry; type: functional, cell-based
K562 [29] = experiment: Reduction in pSTAT5 expression level in human K562 cells at 10 uM after 24 hrs by FACScan flow cytometry; type: functional, cell-based

CC(=O)N1CCC(n2c(=O)[nH]c3ccccc32)CC1
AC50 (K562 [1]): > 50 µM
IC50 (K562 [2]): > 50 µM

COc1ccc(CC(=O)N2CCC(n3c(=O)[nH]c4ccccc43)CC2)cc1
AC50 (K562 [1]): > 50 µM
IC50 (K562 [2]): > 50 µM

O=C(CC=C(c1ccc(F)cc1)c1ccc(F)cc1)N1CCC(n2c(=O)[nH]c3ccccc32)CC1
Activity (K562 [3]): 46.64%
AC50 (K562 [1]): 35 µM
IC50 (K562 [2]): 18 µM
Activity (K562 [4]): 6.16%
Activity (K562 [5]): inactive
Activity (K562 [6]): 47.2%

O=C(Cc1ccc([N+](=O)[O-])cc1)N1CCC(n2c(=O)[nH]c3ccccc32)CC1
AC50 (K562 [1]): > 50 µM
Activity (K562 [7]): 6.07%
IC50 (K562 [2]): 35 µM
Activity (K562 [8]): inactive
Activity (K562 [9]): 62.21%
Activity (K562 [10]): 31.72%

C=CC(=O)N1CCC(n2c(=O)[nH]c3ccccc32)CC1
AC50 (K562 [1]): > 50 µM
IC50 (K562 [2]): > 50 µM

O=C(CI)N1CCC(n2c(=O)[nH]c3ccccc32)CC1
AC50 (K562 [1]): 5 µM
Activity (K562 [11]): 13.98%
IC50 (K562 [2]): 1.8 µM
Activity (K562 [12]): Active
Activity (K562 [13]): 46.96%
Activity (K562 [14]): 39.06%
Activity (K562 [15]): Active
Ratio IC50 (K562 [16]): 2
Ratio IC50 (K562 [17]): 2.7
Ratio IC50 (K562 [18]): 1.49

O=c1[nH]c2ccccc2n1C1CCNCC1
AC50 (K562 [1]): > 50 µM
IC50 (K562 [2]): > 50 µM

O=C(CCC(c1ccccc1)c1ccccc1)N1CCC(n2c(=O)[nH]c3ccccc32)CC1
Activity (K562 [3]): 31.57%
AC50 (K562 [1]): 19 µM
IC50 (K562 [2]): 14 µM
Activity (K562 [4]): 20.41%
Activity (K562 [5]): inactive
Activity (K562 [6]): 48.02%

O=C(CBr)N1CCC(n2c(=O)[nH]c3ccccc32)CC1
AC50 (K562 [1]): 4.8 µM
Activity (K562 [19]): 47.55%
Activity (K562 [20]): 9.22%
IC50 (K562 [2]): 2.4 µM
Activity (K562 [12]): Active
Activity (K562 [21]): 43.23%
Activity (K562 [15]): Active

CN1CCC(n2c(=O)[nH]c3ccccc32)CC1
AC50 (K562 [1]): > 50 µM
IC50 (K562 [2]): > 50 µM

O=C(Cc1cc2ccccc2[nH]1)N1CCC(n2c(=O)[nH]c3ccccc32)CC1
AC50 (K562 [1]): > 50 µM
IC50 (K562 [2]): > 50 µM

N#CCC(=O)N1CCC(n2c(=O)[nH]c3ccccc32)CC1
AC50 (K562 [1]): > 50 µM
IC50 (K562 [2]): > 50 µM

O=C(CC=C(c1ccccc1)c1ccccc1)N1CCC(n2c(=O)[nH]c3ccccc32)CC1
Activity (K562 [22]): 34.1%
AC50 (K562 [1]): 18 µM
Activity (K562 [23]): 58.57%
IC50 (K562 [2]): 13 µM
Activity (K562 [5]): inactive
Activity (K562 [24]): 7.33%

O=C(CCl)N1CCC(n2c(=O)[nH]c3ccccc32)CC1
AC50 (K562 [1]): 14 µM
Activity (K562 [25]): 33.67%
Activity (K562 [26]): 60.23%
IC50 (K562 [2]): 7.3 µM
Activity (K562 [27]): 6.1%
Activity (K562 [28]): inactive

O=C(CCC(c1ccc(F)cc1)c1ccc(F)cc1)N1CCC(n2c(=O)[nH]c3ccccc32)CC1
AC50 (K562 [1]): > 50 µM
IC50 (K562 [2]): > 50 µM

O=C(Cc1ccccc1)N1CCC(n2c(=O)[nH]c3ccccc32)CC1
AC50 (K562 [1]): > 50 µM
IC50 (K562 [2]): > 50 µM

O=c1[nH]c2ccccc2n1C1CCN(CCCC(c2ccc(F)cc2)c2ccc(F)cc2)CC1 [PIMOZIDE]
AC50 (K562 [1]): 10 µM
Activity (K562 [25]): 51.28%
Activity (K562 [26]): 38.41%
IC50 (K562 [2]): 5 µM
Activity (K562 [27]): 10.31%
Activity (K562 [29]): Dose-dependent effect
